Series [1] deals with LncRNA PVT-1. The series can be described thus: Hippocampal LncRNA PVT-1 expression by quantitative RT-PCR in TLE rats. Type of series: in vivo. The conditions noted are these: relative quantitation 2-∆∆Ct; TLE control 5.7 folds of normal rats. On the procedure:
Temporal lobe epilepsy (TLE) was induced in rats using the pilocarpine model according to the method of […] et al.. Prior to the experiment, rats were housed in plastic cages at October University for Modern Science and Arts under controlled environmental conditions (temperatures of 25°±3°C and 50% humidity) with free access to water and softened standard pellet chow. The rats were injected with pilocarpine (300 mg/kg; i.p.) to induce status epilepticus (SE). Atropine (1 mg/kg; i.p.) was injected 30 minutes before pilocarpine injection to antagonize the peripheral muscarinic activity. SE was defined using the modified Racine scale by observing seizure severity categorized as stages 4 and 5. […] For quantitative RT-PCR analysis of miR-199, Sirtuin 1 (Sirt-1) and long non-coding RNA of plasmacytoma variant translocation1 (LncRNA PVT-1), RNA was isolated from the brain hippocampus tissue with direct-zol RNA Miniprep Plus (CAT no. R2072) and reverse-transcribed into cDNA with the reverse transcriptase (CAT no. 12594100) according to the manufacturer instructions. […] Quantitative reverse transcriptase PCR was performed using a Power SYBR Green PCR Master Mix (CFX96 Instrument; Bio-Rad, USA). The relative quantitation (RQ) of each target gene is quantified according to the 2-ΔΔCt method calculation.

Series [2] is described as follows: In vitro drug release, Franz diffusion cell with dialysis bag. The conditions noted are these: PBS pH 7.4, 37 ± 0.5 °C. The format is physicochemical. The procedure:
The in vitro release study utilized a Franz diffusion cell with a diffusion area of 1.77 cm^2 [44]. The receptor compartment contained 7.5 ml phosphate buffer (PBS) pH 7.4, simulating the pH at the release site in the brain [45, 46], and the system was equilibrated at 37 ± 0.5 °C by a circulating water jacket. […] At certain time intervals (0, 0.25, 0.5, 0.75, 1, 2, 4, 8, 12, 24, 36, 48, and 72 h), 0.5 ml samples were aliquoted from the receptor compartment and replaced with equal volumes of fresh medium to maintain a constant volume. Samples were filtered using a 0.22 μm filter and analyzed spectrophotometrically as previously described. In order to understand the barrier presented by the dialysis membrane, the in vitro release study of unformulated ZNS (free drug) solution in distilled water of the same concentration (1mg/ml w/v) was carried out similarly in a separate setup, all release experiments were done in triplicates, and the release data were fitted to various release kinetic models: zero, first, Higuchi diffusion, and Hixson–Crowell and Korsmeyer–Peppas models.

In series [3] the test system is brain-derived neurotrophic factor (BDNF). The series can be described thus: Serum BDNF by ELISA in TLE rats. Type of series: in vivo. The conditions noted are these: TLE control 22.1 ± 1.7, normal group 76.8 ± 6.1. On the procedure:
Temporal lobe epilepsy (TLE) was induced in rats using the pilocarpine model according to the method of Arshad et al.. Prior to the experiment, rats were housed in plastic cages at October University for Modern Science and Arts under controlled environmental conditions (temperatures of 25°±3°C and 50% humidity) with free access to water and softened standard pellet chow. The rats were injected with pilocarpine (300 mg/kg; i.p.) to induce status epilepticus (SE). Atropine (1 mg/kg; i.p.) was injected 30 minutes before pilocarpine injection to antagonize the peripheral muscarinic activity. SE was defined using the modified Racine scale by observing seizure severity categorized as stages 4 and 5. […] The SE seizures were left to last for 3 hours to induce hippocampus damage, after which diazepam (10 mg/kg; i.p.) was injected to attenuate the seizures. Lubricant ophthalmic gel was applied with a cotton swab to each eye to prevent the corneas from drying out during the seizures. The rats were hydrated with sterile Ringer's lactate injections (1 mL, i.p.) for 3 days post-SE induction. […]
The serum levels of neuron-specific enolase (NSE), matrix metallopeptidase-9 (MMP-9), neurofilament light polypeptide (NEFL), and brain-derived neurotrophic factor (BDNF) were measured by ELISA technique using the following standard kits CAT no. […]
Background: In an ELISA, binding on a coated surface is turned into a signal by an enzyme label.

For the molecule `NS(=O)(=O)Cc1noc2ccccc12` [ZNS, Zonisamide], in series [1], the “hippocampal level of LncRNA-PVT1” value is given as 3.4 folds. In series [2], the “ZNS released in 2 hours” value was found to be 96.9±2.1%. Further, the “serum level of BDNF” value in series [3] is 47.45 ± 1.9 pg/mL.

The record behind these values is article PMC13538172, “Zonisamide nanodiamonds for brain targeting: A comprehensive study utilising in silico, in vitro, in vivo, and molecular investigation for successful nose-to-brain delivery for epilepsy management” (Drug Delivery and Translational Research, 2025).
